Assay results as given in patent US8436037B2, “Process for the production of amides” (Syngenta Limited, priority 2005, dated 2013).

What was measured:
[1] = water solubility of crystal modifications; type: physicochemical; settings: over relevant temperature ranges; compared with modification A
[2] = thermodynamic stability (DSC, solubility tests and other experiments); type: physicochemical; settings: compared with modification A
Procedure: Characteristic for modification B is also the thermogram in DSC (differential scanning calorimetry, see FIG. 5). It has an endothermic peak in the range from 120° C. to 128° C. depending on purity. For example, crystal modification B in pure form has a peak temperature of 128° C. and an endothermic signal around 90 J/g. This thermogram is characteristically different from the thermogram of the modification A (see FIG. 6), which has an endothermic peak at about 112° C. and an endothermic signal of 76 J/g. The measurement was carried out on a Metier Toledo 820 DSC in a closed pan with a heating rate of 10 K/minute. The typical sample quantity is about 5 mg.

## CC(C)C1C2CCC1c1c(NC(=O)c3cn(C)nc3C(F)F)cccc12 (stereo not drawn) [modification B, syn-3-difluoromethyl-1-methyl-1H-pyrazole-4-carboxylic acid (9-isopropyl-1,2,3,4-tetrahydro-1,4-methano-naphthalen-5-yl)-amide]
[1]
  water solubility: lower than the water solubility of modification A
[2]
  thermodynamic stability: substantially better thermodynamic stability than the modification A
